One data set concerns L02. The data set is described as follows: Antiproliferative activity against human L02 cells assessed as reduction in cell viability incubated for 72 hrs by MTT assay. It counts as functional, cell-based. To be noted: L02, 72 h.
Data set [1] is described as follows: Cytotoxicity against human HEK293T cells assessed as reduction in cell viability incubated for 72 hrs by MTT assay. Format: toxicity, cell-based, HEK-293T.
A further data set concerns MCF7. As to the kind of experiment: Antiproliferative activity against human MCF7 cells assessed as reduction in cell viability incubated for 72 hrs by MTT assay. It counts as functional, cell-based. The following applies: MCF7, 72 h.
The next data set relates to HCT-116. The data set is described as follows: Antiproliferative activity against human HCT-116 cells assessed as reduction in cell viability incubated for 72 hrs by CCK-8 assay. Format: functional, cell-based. The following applies: HCT-116, 72 h.
The test system of a further data set is K562. The data set is described as follows: Antiproliferative activity against human K562 cells assessed as reduction in cell viability incubated for 72 hrs by CCK-8 assay. It counts as functional, cell-based. The following applies: K562, 72 h. Background: Tetrazolium assays rely on reduction of a dye to a coloured formazan, in cell work by metabolically active cells.

For data set [2], the system named is MOLM-13. The data set is described as follows: cells. The following applies: Homo sapiens, MOLM-13, 96 h.
Another data set concerns OCI-AML-3. As to the kind of experiment: Antiproliferative activity against human OCI-AML-3 assessed as reduction in cell viability incubated for 48 hrs by CellTiter-Glo cell vaibility assay. To be noted: OCI-AML-3, 48 h. Format: functional, cell-based. On the technique in general: In ATP-based viability assays light output follows the ATP content of the culture.
Data set [3] can be described thus: Inhibition of CDK2/CYCA (unknown origin). Set-up: species or system Homo sapiens.
Data set [4] has as its target Casein kinase I isoform alpha (Homo sapiens, UniProt P48729). The data set is described as follows: Binding affinity to CK1alpha (unknown origin) assessed as dissociation constant.
Data set [5] concerns the target T1, Cyclin-dependent kinase 9 (Homo sapiens, UniProt P50750). As to the kind of experiment: Binding affinity to CDK9 (unknown origin) assessed as dissociation constant.
The target in data set [6] is Cyclin-dependent kinase 7 (Homo sapiens, UniProt P50613). As to the kind of experiment: Inhibition of CDK7 (unknown origin).
Cyclin-dependent kinase 7, sequence (P50613 whole entry): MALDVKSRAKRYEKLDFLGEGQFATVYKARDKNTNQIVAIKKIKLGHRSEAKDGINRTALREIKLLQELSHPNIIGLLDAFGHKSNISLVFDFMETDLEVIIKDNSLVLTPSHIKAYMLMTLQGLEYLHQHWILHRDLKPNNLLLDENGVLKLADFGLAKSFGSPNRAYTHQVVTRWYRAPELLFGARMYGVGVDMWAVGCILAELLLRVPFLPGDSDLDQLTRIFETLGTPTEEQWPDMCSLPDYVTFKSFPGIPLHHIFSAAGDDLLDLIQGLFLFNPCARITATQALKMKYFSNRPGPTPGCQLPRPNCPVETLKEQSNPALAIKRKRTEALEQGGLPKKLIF
The target in data set [7] is T1, Cyclin-dependent kinase 9. The data set is described as follows: Inhibition of CDK9 (unknown origin).
Data set [8] has as its system MV4-11. As to the kind of experiment: Cytotoxicity against human MV4-11 cells assessed as reduction in cell viability measured for 72 hrs by cellTiter-Glo assay. To be noted: MV4-11, 72 h. Format: functional, cell-based.
Data set [9] concerns the target Cyclin-dependent kinase 5 (Homo sapiens, UniProt Q00535).
In data set [10] the target is Cyclin-dependent kinase 4 (Homo sapiens, UniProt P11802). The data set is described as follows: Inhibition of CDK4 (unknown origin).
Cyclin-dependent kinase 4, sequence (P11802 whole entry): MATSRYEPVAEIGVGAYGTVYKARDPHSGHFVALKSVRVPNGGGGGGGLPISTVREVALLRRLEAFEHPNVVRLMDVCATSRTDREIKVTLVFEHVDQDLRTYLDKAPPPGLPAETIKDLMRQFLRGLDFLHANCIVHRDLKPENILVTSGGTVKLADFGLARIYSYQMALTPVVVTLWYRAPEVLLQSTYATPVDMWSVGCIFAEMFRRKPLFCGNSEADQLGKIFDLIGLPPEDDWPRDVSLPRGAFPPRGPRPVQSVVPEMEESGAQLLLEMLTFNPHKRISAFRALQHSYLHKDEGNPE
Another data set concerns the target CDK7/Cyclin H/MNAT1 (Homo sapiens, UniProt P50613). The data set is described as follows: Inhibition of CDK7/CycH/MAT1 (unknown origin). Format: protein-complex assay.
Data set [11] concerns the target Cyclin-dependent kinase 2/cyclin E1 (Homo sapiens, UniProt P24941). As to the kind of experiment: Inhibition of CDK2/cyclin E1 (unknown origin). It counts as protein-complex assay.
Data set [12] deals with MV4-11. As to the kind of experiment: Cytotoxicity against human MV4-11 cells assessed as cell growth reduction measured for 48 hrs by MTT assay. It counts as functional.
The target of data set [13] is T2, CDK9/cyclin T1 (Homo sapiens, UniProt P50750). As to the kind of experiment: Binding affinity to CDK9/cyclin T1 (unknown origin) assessed as inhibition constant. It counts as protein-complex assay.
T2 sequence (O60563 whole entry): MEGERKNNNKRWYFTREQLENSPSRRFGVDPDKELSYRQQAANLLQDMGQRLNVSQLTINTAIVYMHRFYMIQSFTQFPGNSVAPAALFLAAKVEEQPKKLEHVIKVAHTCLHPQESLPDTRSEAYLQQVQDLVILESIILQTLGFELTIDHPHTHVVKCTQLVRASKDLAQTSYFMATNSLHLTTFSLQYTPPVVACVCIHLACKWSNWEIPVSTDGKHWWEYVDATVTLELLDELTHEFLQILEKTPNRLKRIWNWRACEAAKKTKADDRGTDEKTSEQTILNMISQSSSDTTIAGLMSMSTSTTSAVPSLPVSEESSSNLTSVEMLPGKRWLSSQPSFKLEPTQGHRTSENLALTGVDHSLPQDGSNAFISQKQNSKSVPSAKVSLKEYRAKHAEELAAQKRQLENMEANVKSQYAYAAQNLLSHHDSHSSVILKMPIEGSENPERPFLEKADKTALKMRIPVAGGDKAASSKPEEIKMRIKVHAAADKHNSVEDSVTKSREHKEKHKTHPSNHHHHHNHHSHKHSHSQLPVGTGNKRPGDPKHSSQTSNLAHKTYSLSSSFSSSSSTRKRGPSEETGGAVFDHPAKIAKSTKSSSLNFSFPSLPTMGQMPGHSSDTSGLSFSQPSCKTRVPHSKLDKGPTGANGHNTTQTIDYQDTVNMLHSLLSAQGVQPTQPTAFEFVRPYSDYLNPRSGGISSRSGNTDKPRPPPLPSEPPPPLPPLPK
T2 sequence (P50750 whole entry): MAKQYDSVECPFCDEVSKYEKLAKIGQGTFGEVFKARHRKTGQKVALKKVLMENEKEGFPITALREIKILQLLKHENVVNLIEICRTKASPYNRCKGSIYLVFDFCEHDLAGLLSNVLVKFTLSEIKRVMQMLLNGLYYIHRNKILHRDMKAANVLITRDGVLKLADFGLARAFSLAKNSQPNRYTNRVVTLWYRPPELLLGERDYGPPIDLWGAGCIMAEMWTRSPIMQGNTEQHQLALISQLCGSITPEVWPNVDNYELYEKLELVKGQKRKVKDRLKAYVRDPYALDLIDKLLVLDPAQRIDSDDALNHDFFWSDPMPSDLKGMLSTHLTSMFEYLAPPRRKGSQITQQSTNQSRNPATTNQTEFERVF
Data set [14] addresses Receptor-type tyrosine-protein kinase FLT3 (Homo sapiens, UniProt P36888, ITD). As to the kind of experiment: Binding affinity FLT3-ITD mutant (unknown origin) assessed as inhibition constant.
Data set [15] concerns the target T3, Protein cereblon/Cyclin-dependent kinase 9 (Homo sapiens) (UniProt P50750+Q96SW2). The data set is described as follows: PROTAC activity at CRBN/CDK9 in human MV4-11 cells assessed as maximal degradation of CDK9 at 10 uM measured for 6 hrs by Western blot analysis. It counts as cell-based. A general note: A western blot detects proteins with antibodies after separation by electrophoresis.

Data set [16] has as its target T3, Protein cereblon/Cyclin-dependent kinase 9 (Homo sapiens). The data set is described as follows: PROTAC activity at CRBN/CDK9 in human MV4-11 cells assessed as maximal degradation of CDK9 at 20 uM measured for 6 hrs by Western blot analysis. It counts as cell-based.
Data set [17] concerns the target T1, Cyclin-dependent kinase 9.
In data set [18] the test system is MOLM-13. The data set is described as follows: Antiproliferative activity against human MOLM-13 cells assessed as reduction in cell viability incubated for 72 hrs by MTT assay. The following applies: MOLM-13, 72 h. Format: functional, cell-based.
In a further data set the test system is A498. As to the kind of experiment: Antiproliferative activity against human A498 cells assessed as reduction in cell viability incubated for 72 hrs by MTT assay. Format: functional, cell-based. To be noted: A498, 72 h.
The nature of data set [19]: Antiproliferative activity against human A-293 cells assessed as reduction in cell viability measured for 48 hrs by MTT assay. The following applies: A-293 (AD293) cells. It counts as toxicity, cell-based.
Data set [20] deals with T2, CDK9/cyclin T1. The data set is described as follows: Inhibition of CDK9/cyclin T1 (unknown origin). Format: protein-complex assay.
The target in the next data set is Histone deacetylase 1 (Homo sapiens, UniProt Q13547). The data set is described as follows: Inhibition of HDAC1 (unknown origin) by fluorescence based assay.
Histone deacetylase 1, sequence (Q13547 whole entry): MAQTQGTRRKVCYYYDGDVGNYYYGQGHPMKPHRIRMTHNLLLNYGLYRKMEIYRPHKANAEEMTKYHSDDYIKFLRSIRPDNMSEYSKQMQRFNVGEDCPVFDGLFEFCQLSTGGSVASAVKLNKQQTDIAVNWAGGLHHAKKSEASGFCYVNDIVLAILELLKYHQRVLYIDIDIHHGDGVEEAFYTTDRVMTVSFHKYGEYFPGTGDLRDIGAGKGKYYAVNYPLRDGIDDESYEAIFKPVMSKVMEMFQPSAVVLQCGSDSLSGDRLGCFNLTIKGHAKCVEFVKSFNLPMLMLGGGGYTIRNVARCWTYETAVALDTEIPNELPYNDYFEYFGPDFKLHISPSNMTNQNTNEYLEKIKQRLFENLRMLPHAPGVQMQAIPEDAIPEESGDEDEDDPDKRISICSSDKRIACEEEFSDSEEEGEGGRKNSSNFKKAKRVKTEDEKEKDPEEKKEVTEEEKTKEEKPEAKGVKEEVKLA
The target of data set [21] is T1, Cyclin-dependent kinase 9. The data set is described as follows: Inhibition of CDK9 (unknown origin) at 100 nM relative to control.
Data set [22] is described as follows: Downregulation of RNAP2 phosphorylation at serine 2 residue in human MV4-11 cells. It counts as functional, cell-based.
In data set [23] the test system is MV4-11. The data set is described as follows: Antiproliferative activity against human MV4-11 cells assessed as reduction in cell growth incubated for 48 hrs by MTT assay. It counts as functional, cell-based. The following applies: MV4-11, 48 h.

Where only a bound is given, the exact number is not on record here.

T1 sequence (P50750 whole entry): as the sequence (P50750 whole entry) above
T3 sequence (P50750 whole entry, looked up): as the sequence (P50750 whole entry) above
T3 sequence (Q96SW2 whole entry, looked up): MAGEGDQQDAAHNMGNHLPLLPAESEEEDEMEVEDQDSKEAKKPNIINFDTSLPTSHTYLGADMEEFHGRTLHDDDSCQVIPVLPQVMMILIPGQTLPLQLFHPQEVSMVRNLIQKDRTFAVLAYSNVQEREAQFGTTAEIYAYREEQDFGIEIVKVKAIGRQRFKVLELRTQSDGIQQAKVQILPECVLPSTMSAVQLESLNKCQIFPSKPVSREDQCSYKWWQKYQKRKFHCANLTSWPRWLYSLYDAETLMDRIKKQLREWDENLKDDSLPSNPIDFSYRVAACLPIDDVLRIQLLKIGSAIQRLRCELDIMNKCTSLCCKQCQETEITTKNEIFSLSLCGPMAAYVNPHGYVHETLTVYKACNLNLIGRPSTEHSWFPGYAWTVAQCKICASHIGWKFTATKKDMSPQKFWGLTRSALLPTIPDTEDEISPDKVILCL
Casein kinase I isoform alpha, sequence (P48729 whole entry, canonical isoform): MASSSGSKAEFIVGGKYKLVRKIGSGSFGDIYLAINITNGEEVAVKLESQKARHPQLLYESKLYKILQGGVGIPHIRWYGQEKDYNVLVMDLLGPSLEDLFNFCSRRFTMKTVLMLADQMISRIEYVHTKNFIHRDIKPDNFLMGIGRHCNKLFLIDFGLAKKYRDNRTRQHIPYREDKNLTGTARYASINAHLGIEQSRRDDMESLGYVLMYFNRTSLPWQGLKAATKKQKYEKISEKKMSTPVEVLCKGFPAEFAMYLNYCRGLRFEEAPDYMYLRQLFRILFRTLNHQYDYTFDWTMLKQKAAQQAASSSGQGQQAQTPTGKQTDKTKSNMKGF
Cyclin-dependent kinase 5, sequence (Q00535 whole entry): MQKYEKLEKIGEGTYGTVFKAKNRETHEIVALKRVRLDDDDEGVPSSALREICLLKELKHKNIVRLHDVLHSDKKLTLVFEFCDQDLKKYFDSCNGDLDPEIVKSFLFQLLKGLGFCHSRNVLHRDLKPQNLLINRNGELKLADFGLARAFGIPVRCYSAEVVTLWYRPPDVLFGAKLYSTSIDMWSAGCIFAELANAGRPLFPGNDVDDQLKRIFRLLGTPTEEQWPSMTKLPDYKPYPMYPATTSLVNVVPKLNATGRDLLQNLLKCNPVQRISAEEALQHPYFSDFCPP
Receptor-type tyrosine-protein kinase FLT3, sequence (P36888 whole entry, looked up, stated change not applied): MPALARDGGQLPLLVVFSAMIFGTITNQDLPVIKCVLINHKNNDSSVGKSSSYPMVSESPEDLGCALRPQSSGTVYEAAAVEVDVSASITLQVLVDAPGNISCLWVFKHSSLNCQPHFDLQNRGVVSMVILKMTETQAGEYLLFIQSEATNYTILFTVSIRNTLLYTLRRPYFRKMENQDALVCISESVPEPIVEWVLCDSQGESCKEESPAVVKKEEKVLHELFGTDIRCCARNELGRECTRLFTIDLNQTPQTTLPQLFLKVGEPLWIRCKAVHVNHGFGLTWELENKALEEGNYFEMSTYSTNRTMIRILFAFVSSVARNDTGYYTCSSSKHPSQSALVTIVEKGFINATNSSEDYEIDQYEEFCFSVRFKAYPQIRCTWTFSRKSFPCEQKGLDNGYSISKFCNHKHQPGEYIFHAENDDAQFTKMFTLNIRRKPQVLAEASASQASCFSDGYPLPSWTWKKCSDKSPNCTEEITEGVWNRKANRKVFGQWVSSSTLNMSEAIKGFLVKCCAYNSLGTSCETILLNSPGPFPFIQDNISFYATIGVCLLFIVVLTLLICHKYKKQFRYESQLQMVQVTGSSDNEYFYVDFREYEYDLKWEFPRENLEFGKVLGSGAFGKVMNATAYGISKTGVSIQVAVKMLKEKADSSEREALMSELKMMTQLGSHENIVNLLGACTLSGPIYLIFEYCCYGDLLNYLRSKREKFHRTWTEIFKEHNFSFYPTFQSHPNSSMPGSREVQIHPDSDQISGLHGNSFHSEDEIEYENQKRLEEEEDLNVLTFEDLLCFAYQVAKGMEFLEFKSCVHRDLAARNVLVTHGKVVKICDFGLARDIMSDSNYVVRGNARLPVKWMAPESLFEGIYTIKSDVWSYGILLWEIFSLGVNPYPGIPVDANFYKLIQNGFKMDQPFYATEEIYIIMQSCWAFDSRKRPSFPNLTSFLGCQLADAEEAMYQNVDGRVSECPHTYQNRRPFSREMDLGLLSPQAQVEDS

`COc1ccc(C(=O)Nc2cc(-c3ccnc(N4CCC(O)CC4)c3)ccn2)cc1`: the IC50 (usually the concentration that inhibits the measured activity by half) in the data set with L02 is > 800 nM. The IC50 at 72 h in data set [1] was > 800 nM.

Regarding `c1ccc(CNc2c(-c3ccncc3)nc3cnccn23)cc1`, the concentration for half-maximal inhibition (IC50) in the data set with MCF7, in the data set on HCT-116 and in the data set on K562 was 7000 nM throughout.

Compound `COc1cc(F)ccc1-c1ncnc(Nc2cccc(C[S@](C)(=N)=O)c2)n1` [ATUVECICLIB] showed a half-maximal inhibitory concentration (IC50) with MOLM-13 [2] of 310 nM.

As to `Cc1ccc([N+](=O)[O-])cc1S(=O)(=O)N(C)/N=C/c1cnc2ccc(Br)cn12`, the IC50 in the data set on OCI-AML-3 was 220 nM.

In data set [3], `COc1cc(O)c2c(=O)cc(-c3ccc(N4CCN(C)CC4)cc3)oc2c1N1CCNCC1` showed a 50% inhibitory concentration (IC50) of 1180 nM.

On to `Cn1ncc(-c2nc(NC3CCC(N)CC3)ncc2F)c1CC1CC1` (stereo unspecified), for which the Kd (commonly the free concentration of one partner at which half of the binding sites on the other are occupied at equilibrium, for simple one-to-one binding) in data set [4] came out at 9.8 nM; in [5], 5.4 nM.

As to `COCCN[C@H]1CC[C@H](Nc2cc(-c3csc(NCC4(C#N)CCOCC4)n3)c(Cl)cn2)CC1`, the IC50 stood at 172 nM in data set [6], 2 nM in [7] and 12 nM in the data set on MV4-11 [8].

Regarding `COc1ccccc1-c1cccc(Nc2cccc(N3CCCNCC3)c2)n1`, the half-maximal inhibitory concentration (IC50) in data set [7] is 16 nM; in [9] it was 574 nM.

Take `Cn1ncc(-c2nc(NC3CCC(N)CC3)ncc2Cl)c1CC1CC1` (stereo unspecified): the Kd is 5.3 nM in [4] and 4 nM in data set [5].

As for `CN(C)C(=O)c1cc2cnc(Nc3ccc(S(N)(=O)=O)cc3)nc2n1C1CCCC1`, the IC5 in data set [10] came out at 12 nM.

On to `O=c1cc(-c2cccc(O)c2)oc2c1ccc1occc12`, for which the IC50 at CDK7/Cyclin H/MNAT1 was 93 nM; in data set [11], > 20000 nM.

Compound `COc1ccccc1-c1ccnc(Nc2ccc3c(c2)CC(=O)C(C(C)=O)C3C)n1` (stereo unspecified) displayed an IC50 in [7] of 184 nM.

For `CCC(CC)c1cc(N[C@H]2CC[C@H](N)C2)n2nccc2n1` [ISTISOCICLIB], the GR50 in the data set on MV4-11 [12] came out at 0.288 µM.

On to `COc1ccc(Nc2c(-c3ccoc3)nc3cnccn23)cc1`, for which the IC50 in the data set with MCF7, with HCT-116 and in the data set with K562 was 11600 nM throughout.

Take `COC[C@H](C)N[C@H]1CC[C@H](Nc2cc(-c3cccc(NCC4(C#N)CCOCC4)n3)c(Cl)cn2)CC1`: the IC50 in data set [7] was < 0.514 nM.

Consider `CCN1C(=O)COc2c(CN3CCOCC3)cc(Nc3nccc(-c4cccnc4)n3)cc21`, for which the IC5 in data set [7] is 6.7 nM.

Turning to `Cc1cnc(NC2CCC(N)CC2)nc1-c1cnc2ccc(-c3ccccc3)cn12` (stereo unspecified), the Ki (as a rule, the equilibrium dissociation constant of an inhibitor or competing ligand from its target) was found to be 8 nM on CDK9/cyclin T1 [13] and 13 nM in [14].

Take `O=C1CCC(N2C(=O)c3cccc(OCCCCCOc4ccc(CC(=O)Nc5cc(C6CCC6)[nH]n5)cc4)c3C2=O)C(=O)N1` (stereo unspecified): the maximal response (Emax) (commonly the size of the effect at its maximum, as opposed to the concentration needed) in data set [15] was found to be 56%; in [16] it was 65%.

Consider `CC(C)c1c2cc(-c3ccnc(Nc4ccc5c(N6CCN(C)CC6)ncnc5c4)n3)ccc2nn1C`, for which the values for the half-inhibitory concentration (IC50) in [10] and in data set [17] were 2.2 nM and 1.9 nM, respectively.

Turning to `COc1cc(F)ccc1-c1cc(Nc2cc(C[S@](C)(=N)=O)ccn2)ncc1F`, in the data set with MOLM-13 [18], the half-inhibitory concentration (IC50) came out at 29 nM.

With `COc1ccccc1-c1cc(Nc2cccc(CS(N)(=O)=O)c2)ncn1`, in data set [3], the midpoint of inhibition, the IC50, lay at 2440 nM.

Take `N[C@H]1CC[C@H](Nc2cc(-c3cccc(NCc4cccc(F)c4)n3)c(Cl)cn2)CC1`: the IC50 is < 0.4 nM in data set [7] and 57 nM with A498. The IC50 at 48 h in data set [19] worked out at 76 nM.

With `CN(C)C/C=C\C(=O)Nc1ccc(C(=O)N[C@H]2CC[C@H](Nc3cc(-c4cccc(NCc5cccc(F)c5)n4)c(Cl)cn3)CC2)cc1`, the IC50 at CDK9/cyclin T1 [20] is 196 nM; with A498, < 700 nM. In data set [19], the IC50 at 48 h was determined as 3230 nM.

On Histone deacetylase 1, `Nc1ccccc1NC(=O)c1ccc(NC(=O)c2n[nH]cc2NC(=O)c2c(Cl)cccc2Cl)cc1` had a half-inhibitory concentration (IC50) of 98 nM. In addition, the inhibition (usually the drop in the measured response relative to a control, in per cent) in data set [21] is 98.3%.

In data set [7], `N[C@H]1CCN(c2c3c(nc4ccc(-c5ccnc(NC(=O)C6CC6)n5)cc24)CCCC3)C1` gave an IC50 of 2.23 nM.

As to `CC(=O)N[C@H]1CCC[C@@H](C(=O)Nc2cc(-c3cnn4c3CC(C)(C)C4)c(Cl)cn2)C1`, the values for the concentration for half-maximal inhibition (IC50) (in [22]; in the data set on MV4-11 [23]) were 13 nM and 13.7 nM, respectively.

The record behind these values is ChEMBL document CHEMBL5543128, “Recent Discovery and Development of Inhibitors that Target CDK9 and Their Therapeutic Indications” (J Med Chem, 2024).
